Reference: patent US10336734B2, “Inhibitors of ACK1/TNK2 tyrosine kinase” (H. LEE MOFFITT CANCER CENTER AND RESEARCH INSTITUTE, INC., priority 2015, dated 2019)

Legend:
[1] = tested on: histone H4 Y88-phosphorylation; assay: Immunoblot of H4 Y88-phosphorylation in ligand-treated PC cells; format: cell-based; conditions: serum and androgen starved PC cells, ligand activated; 5 μM (DHT 10 nM)
Procedure: FIG. 2A through 2C. ACK1 inhibitor (R)-9bMS suppresses epigenetic modification of histone H4 at tyrosine 88.
To assess endogenous H4-phosphorylation, serum and androgen starved PC cells were treated with ligands to activate ACK1. It led to robust H4 Y88-phosphorylation, suppressed upon (R)-9bMS treatment (FIG. 2A). […] Moreover, H4 Y88-phosphorylation was also detected in human CRPCs using mass spectrometry, which was validated by immunoblotting (FIG. 3A-3C).

VCaP = assay: Cell viability/proliferation of PC cell lines, VCaP; format: cell-based; conditions: 96 hr, read-out: IC50, suppression of proliferation
From the text: (§1) FIG. 7A through 7F. (R)-9bMS overcome enzalutamide-resistance of CRPCs. […] Data represent mean±s.e.m. (n=3) from one of three independent experiments. […] Data represent mean±s.e.m. (n=3) from one of three independent experiments. […] Data represent mean±standard error of the mean (s.e.m.) (n=3) from one of three independent experiments.*p<0.05. […] Cell cycle analysis of prostate cell lines treated with (R)-9bMS (24 hr).
(§2) To investigate the anti-tumor activity of ACK1 inhibitor, we first analyzed the ability (R)-9bMS to suppress proliferation of PC cell lines.

LNCaP = assay: Cell viability/proliferation of PC cell lines, LNCaP; format: cell-based; conditions: 96 hr, read-out: IC50, suppression of proliferation
From the text: as §1, §2

[2] = tested on: LNCaP-caAck xenograft tumors; assay: LNCaP-caAck xenograft in castrated SCID mice; format: in vivo; conditions: 50 mg/kg, 6 days a week for four weeks
Procedure: FIG. 9. ACK1 inhibitor (R)-9bMS suppresses xenograft tumor growth in castrated mice. Male SCID mice were castrated and injected with LNCaP-caAck cells. Once mice formed palpable tumors, mice were injected with vehicle (10% DMSO in PBS) or (R)-9bMS (50 mg/kg of body) for 6 days a week for four weeks (n=7 mice for each treatment). Tumor volumes were measured.

C4-2B = assay: Cell viability/proliferation of PC cell lines, C4-2B; format: cell-based; conditions: 96 hr, read-out: IC50, suppression of proliferation
From the text: as §1, §2

[3] = tested on: pY88-H4 epigenetic marks upstream of AR gene; assay: ChIP-qPCR at AREM1-3 sites in C4-2B cells; format: cell-based
From the text: FIG. 5A through 5J. AR transcription is regulated by epigenetic modification of histone H4 at tyrosine 88 is sensitized byc(R)-9bMS. FIG. 5A through 5D show ChIP with pY88-H4 antibodies, followed by qPCR using primers corresponding to AREM1-3 and control (gene desert) sites of C4-2B cells treated with (R)-9bMS. Data represent mean±s.e.m. (n=3) from one of three independent experiments. **p<0.01. […] Data represent mean±s.e.m. (n=3) from one of three independent experiments. *p<0.05, **p<0.01. FIGS. 5F and 5G show ChIP with pY88-H4 antibodies, followed by qPCR using primers corresponding to AREM2 and AREM1 site of C4-2B cells transfected with ACK1, AR and control siRNA. Data represent mean±s.e.m. (n=3) from one of three independent experiments. *p<0.05, **p<0.01. […] Data represent mean±s.e.m. (n=3) from one of three independent experiments. *p<0.05. FIGS. 5I and 5J show qRT-PCR analysis of AR and PSA in LAPC4 cells transfected with FLAG-tagged H4 or Y88F mutant H4 expressing constructs. Data represent mean±s.e.m. (n=3) from one of three independent experiments.*p<0.05, **p<0.01.
FIG. 6A through 6F. Recruitment of the MLL2/WDR5 complex and deposition of H3K4me3 epigenetic marks upstream of the AR gen can be erased by (R)-9bMS. […]

AR-V7 = AR-V7 mRNA (qRT-PCR) and variant protein (immunoblot) in PC cells; format: cell-based; conditions: VCaP 3.5 μM, 16 hr; VCaP and LAPC4 immunoblot
From the text: FIG. 1A through 1F. Inhibition of ACK1 kinase activity by (R)-9bMS (DZ1-067 mesylate salt) suppresses AR and AR-V7 expression. […] Data represent mean±s.e.m. (n=3) from one of three independent experiments. *p<0.05. FIG. 1B and FIG. 1C show immunoblot analysis of androgen-deprived VCaP and LAPC4 cells treated with (R)-9bMS. […] FIG. 1E and FIG. 1F show qRT-PCR analysis of AR and PSA in PC3 cells transfected with caACK or kdACK constructs. Data represent mean±s.e.m. (n=3) from one of three independent experiments. **p<0.01.
We assessed AR-V7 mRNA levels upon treatment with (R)-9bMS (DZ1-067 mesylate salt).

PC cells = assay: Cell cycle and apoptosis of PC cells; format: cell-based
From the text: as §1, §2

[4] = tested on: enzalutamide-resistant C4-2B cell line; assay: Cell viability and AR expression, enzalutamide-resistant C4-2B cells; format: cell-based
From the text: as §1, with “7F.” for “7F. (R)-9bMS overcome enzalutamide-resistance of CRPCs.”

LAPC4 = assay: Cell viability/proliferation of PC cell lines, LAPC4; format: cell-based; conditions: LAPC4, 96 hr; read-out: IC50, suppression of proliferation
From the text: as §1, §2

C4-2B xenograft tumors = assay: C4-2B CRPC xenograft in castrated SCID mice; format: in vivo
Procedure: FIG. 8A through 8F. (R)-9bMS mitigates CRPC tumor growth. […] Once formed palpable tumors, mice were injected with vehicle (10% DMSO in PBS) or (R)-9bMS (50 mg/kg of body) for 6 days a week for five weeks (n=9 mice for each treatment). Tumor volumes were measured. Data represent mean±s.e.m. […] Data represent mean±standard error of the mean (s.e.m.) (n=3) from one of three independent experiments. **p<0.01.
To investigate the effect of (R)-9bMS on CRPC xenograft tumor growth, C4-2B cells were implanted in castrated SCID mice.

[5] = 50 mg/kg, 6 days a week for five weeks

## CN1CCN(c2ccc(Nc3ncc(Cl)c(NC[C@H]4CCCO4)n3)cc2)CC1 [(R)-9bMS]
[1]
  H4 Y88-phosphorylation: suppressed
VCaP
  IC50: 450 nM
LNCaP
  IC50: 1800 nM
[2]
  Xenograft tumor growth: displayed sensitivity
C4-2B
  IC50: 400 nM
[3]; ChIP real time PCR
  pY88-H4 marks at AREM1-3 sites: erased
[3]; absence of androgen
  WDR5, MLL2, H3K4me3 methyl marks and RNA Pol II at AREM1-3 sites: significantly reduced
AR-V7
  AR-V7 mRNA and variant protein levels: significantly reduced
PC cells; 24 hr
  Cell cycle: arrest PC cells in G2 phase
PC cells; C4-2B cells
  Apoptosis: inducing apoptosis
[4]; enzalutamide-resistant C4-2B cells, 96 hr
  Sensitivity of enzalutamide-resistant cells: retained sensitivity
[4]; immunoblot
  AR expression in enzalutamide-resistant cells: able to suppress AR expression
LAPC4
  IC50: 750 nM
C4-2B xenograft tumors; 50 mg/kg
  Organ histology (H&E): histologically normal
  body weights: no statistical difference
C4-2B xenograft tumors; [5]
  CRPC tumor growth: significant decrease
  tumor weight: significant decrease
C4-2B xenograft tumors; qRT-PCR of xenograft tumors
  AR, PSA & TMPRSS2 mRNAs levels in tumors: significant reduction
